Test results taken from PMC9516332 (Frontiers in Oncology, 2022).

Legend:
Experiment in all cases: Kinase panel profiling at 1 µmol/L (MSA or IMAP), percentage inhibition
Assay type in all cases: biochemical
[1] = molecular target: T1, panel of 255 wild-type kinases (Homo sapiens, UniProt Q14164); details: kinase IKKε; 1 µmol/L single concentration; read-out: %-inhibition at 1 µmol/L, IKKε
T1 sequence (Q14164 1-716): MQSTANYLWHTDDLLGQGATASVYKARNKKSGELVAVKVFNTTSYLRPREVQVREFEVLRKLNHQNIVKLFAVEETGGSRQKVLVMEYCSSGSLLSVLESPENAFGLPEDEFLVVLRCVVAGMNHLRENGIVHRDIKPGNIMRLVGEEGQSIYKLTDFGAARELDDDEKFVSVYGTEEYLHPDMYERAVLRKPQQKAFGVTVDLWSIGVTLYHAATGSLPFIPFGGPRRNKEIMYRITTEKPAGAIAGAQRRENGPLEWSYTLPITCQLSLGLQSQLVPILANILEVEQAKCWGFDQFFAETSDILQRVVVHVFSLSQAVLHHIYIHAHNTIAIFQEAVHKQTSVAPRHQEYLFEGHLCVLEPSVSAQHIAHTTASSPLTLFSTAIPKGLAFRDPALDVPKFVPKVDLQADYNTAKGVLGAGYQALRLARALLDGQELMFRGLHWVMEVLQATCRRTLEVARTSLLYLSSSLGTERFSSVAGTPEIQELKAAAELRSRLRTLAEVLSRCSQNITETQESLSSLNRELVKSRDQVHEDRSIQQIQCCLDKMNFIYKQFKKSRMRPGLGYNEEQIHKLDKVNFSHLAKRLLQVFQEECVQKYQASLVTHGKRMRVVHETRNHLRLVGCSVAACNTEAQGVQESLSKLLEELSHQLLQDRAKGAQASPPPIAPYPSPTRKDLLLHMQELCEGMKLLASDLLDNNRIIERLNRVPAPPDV

[2] = molecular target: panel of 255 wild-type kinases (Homo sapiens, UniProt Q13177); details: PAK2; 1 µmol/L single concentration; read-out: %-inhibition, PAK2
[3] = molecular target: panel of 255 wild-type kinases (Homo sapiens, UniProt Q5VT25); details: MRCKα; 1 µmol/L single concentration; read-out: %-inhibition, MRCKα
[4] = molecular target: panel of 255 wild-type kinases (Homo sapiens, UniProt P09619); details: kinase PDGFRβ; 1 µmol/L single concentration; read-out: %-inhibition at 1 µmol/L, PDGFRβ
[5] = molecular target: panel of 255 wild-type kinases (Homo sapiens, UniProt Q86Z02); details: kinase HIPK1; 1 µmol/L single concentration; read-out: %-inhibition at 1 µmol/L, HIPK1
[6] = molecular target: T2, panel of 255 wild-type kinases (Homo sapiens, UniProt Q9NZJ5); details: kinase PEK; 1 µmol/L single concentration; read-out: %-inhibition at 1 µmol/L, PEK
T2 sequence (Q9NZJ5 30-1116): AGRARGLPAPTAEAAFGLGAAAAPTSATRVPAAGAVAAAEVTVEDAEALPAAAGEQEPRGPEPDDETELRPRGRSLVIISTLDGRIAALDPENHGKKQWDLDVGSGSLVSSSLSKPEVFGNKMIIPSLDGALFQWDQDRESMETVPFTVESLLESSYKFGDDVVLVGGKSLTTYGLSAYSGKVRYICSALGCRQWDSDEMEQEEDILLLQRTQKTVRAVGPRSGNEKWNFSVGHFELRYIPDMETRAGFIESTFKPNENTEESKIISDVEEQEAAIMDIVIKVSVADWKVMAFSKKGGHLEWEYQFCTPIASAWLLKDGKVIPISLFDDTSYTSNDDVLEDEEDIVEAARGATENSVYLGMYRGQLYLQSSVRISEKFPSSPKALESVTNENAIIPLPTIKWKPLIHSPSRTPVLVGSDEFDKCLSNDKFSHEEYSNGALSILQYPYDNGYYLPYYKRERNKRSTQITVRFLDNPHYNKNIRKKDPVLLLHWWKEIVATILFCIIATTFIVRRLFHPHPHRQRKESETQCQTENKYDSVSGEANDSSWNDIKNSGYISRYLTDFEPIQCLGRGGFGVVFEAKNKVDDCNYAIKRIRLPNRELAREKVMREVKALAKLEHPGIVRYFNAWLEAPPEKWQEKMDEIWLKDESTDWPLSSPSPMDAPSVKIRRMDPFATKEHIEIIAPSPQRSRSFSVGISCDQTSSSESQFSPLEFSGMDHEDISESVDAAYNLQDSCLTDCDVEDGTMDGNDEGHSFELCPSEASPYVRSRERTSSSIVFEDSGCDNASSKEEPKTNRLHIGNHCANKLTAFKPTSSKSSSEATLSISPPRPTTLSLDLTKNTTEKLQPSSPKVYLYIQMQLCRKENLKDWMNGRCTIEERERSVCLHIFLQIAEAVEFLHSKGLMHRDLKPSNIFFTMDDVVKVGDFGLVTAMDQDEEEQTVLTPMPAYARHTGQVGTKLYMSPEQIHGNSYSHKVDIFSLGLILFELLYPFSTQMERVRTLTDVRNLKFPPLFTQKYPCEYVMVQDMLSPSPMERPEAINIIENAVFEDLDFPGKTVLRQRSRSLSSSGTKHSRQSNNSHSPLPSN

[7] = molecular target: panel of 255 wild-type kinases (Homo sapiens, UniProt Q9P289); details: MST4; 1 µmol/L single concentration; read-out: %-inhibition, MST4
[8] = molecular target: panel of 255 wild-type kinases (Homo sapiens, UniProt P49760); details: kinase CLK2; 1 µmol/L single concentration; read-out: %-inhibition at 1 µmol/L, CLK2

Structure (SMILES)	inhibition at 1 µM [1] [%]	inhibition at 1 µM [2] [%]	inhibition at 1 µM [3] [%]	inhibition at 1 µM [4] [%]	inhibition at 1 µM [5] [%]	inhibition at 1 µM [6] [%]	inhibition at 1 µM [7] [%]	inhibition at 1 µM [8] [%]
CO[C@]1(C(=O)N[C@@H](C)c2ccc(-n3cc(F)cn3)nc2)CC[C@H](c2nc(C)cc(Nc3cc(C)[nH]n3)n2)CC1 [pralsetinib]	-5	16	1.82	99	13	2.26	-1.47	9.51
C=CC(=O)N1CCC([C@@H]2CCNc3c(C(N)=O)c(-c4ccc(Oc5ccccc5)cc4)nn32)CC1 [zanubrutinib]	6	10	-0.931	3.39	-3.58	2	-1	7.62
Cn1cc(-c2cc3c(N4CCN(c5ncc([C@@](C)(N)c6ccc(F)cc6)cn5)CC4)ncnn3c2)cn1 [avapritinib]	-0.262	-4.42	4	95	1.58	1.51	7	11
